Measurements: patent US20190367520A1, “NEW COMPOUND HAVING FGFR INHIBITORY ACTIVITY AND PREPARATION AND APPLICATION THEREOF” (SHANGHAI INSTITUTE OF MATERIA MEDICA, CHINESE ACADEMY OF …, priority 2016, published 2019)

Columns and labels:
SNU16 cells = test: SNU16 cell proliferation (CCK-8, 72 h); format: cell-based; conditions: Homo sapiens, SNU-16, read-out: SNU16 (IC50 class)
Procedure: The inhibitory effect of the compound on SNU16 cells proliferation was examined by CCK-8 Cell Counting Kit (Dojindo). The specific steps are as follows: SNU16 cells in logarithmic growth phase were inoculated into a 96-well culture plate at a suitable density, 90 μL per well, and cultured overnight, different concentrations of compounds were added for 72 hr, and the solvent control group was set (negative control). After the cells were treated by the compound for 72 h, the effect of the compound on cell proliferation was detected by CCK-8 cell counting kit (Dojindo). 10 μL of CCK-8 reagent was added to each well and placed in a 37° C. incubator for 2-4 hours. The full-wavelength microplate reader SpectraMax 190 was used at a measure wavelength of 450 nm.

[1] = biological target: FGFR4 kinase domain recombinant protein (Homo sapiens, UniProt P22455); test: FGFR4 enzyme activity at molecular level (ELISA, Poly(Glu,Tyr) 4:1 substrate)
Sequence of FGFR4 kinase domain recombinant protein (P22455 467-755 limits assumed): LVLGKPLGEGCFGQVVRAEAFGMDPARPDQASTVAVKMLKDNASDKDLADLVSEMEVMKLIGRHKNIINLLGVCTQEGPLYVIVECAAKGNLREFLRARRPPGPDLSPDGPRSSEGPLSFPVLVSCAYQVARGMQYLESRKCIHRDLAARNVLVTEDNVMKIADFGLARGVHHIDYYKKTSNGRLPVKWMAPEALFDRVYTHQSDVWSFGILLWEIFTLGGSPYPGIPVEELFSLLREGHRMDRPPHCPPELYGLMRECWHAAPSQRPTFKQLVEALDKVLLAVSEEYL
Procedure: (§1) The plate was placed at 37° C. for 12-16 hours. The liquid in the well was discarded, the plate was washed, and the panel was washed three times with 200 μL/well of T-PBS (PBS containing 0.1% Tween-20) for 5 minutes each time.
(§2) 50 μL of ATP solution diluted with reaction buffer (50 mM HEPES pH 7.4, 50 mM MgCl2, 0.5 mM MnCl2, 0.2 mM Na3VO4, 1 mM DTT) was added to each well to a final concentration of 5 μM. The compound was diluted to a suitable concentration in DMSO, 1 μL/well or containing the corresponding concentration of DMSO (negative control well), and the FGFR1, FGFR4 kinase domain recombinant protein diluted in 49 μL of reaction buffer was added to initiate the reaction. Two control wells without ATP were required for each experiment. The reaction was carried out for 1 hour at 37° C. on a shaker (100 rpm). The plate was washed three times with T-PBS. Primary antibody, PY99 dilution was added at 100 μL/well and shaken at 37° C. for 0.5 hour. The plate was washed three times with T-PBS. Secondary antibody, horseradish peroxidase-labeled goat anti-mouse IgG dilution was added at 100 μL/well, and shaken at 37° C. for 0.5 hour. […] (Ultrasound was required for the dissolution of OPD, and the chromogenic solution needed to be prepared when used). 2 M H2SO4 was added at 50 μL/well to quench the reaction and a tunable wavelength microplate reader SPECTRA MAX 190 was used at a wavelength of 490 nm.
(§3) The inhibition rate of the sample was obtained by the following formula:
(§4) The IC50 value was obtained by four-parameter regression using the software attached to the microplate reader.

[2] = biological target: FGFR1 kinase domain recombinant protein (Homo sapiens, UniProt P11362); test: FGFR1 enzyme activity at molecular level (ELISA, Poly(Glu,Tyr) 4:1 substrate)
Sequence of FGFR1 kinase domain recombinant protein (P11362 478-767 limits assumed): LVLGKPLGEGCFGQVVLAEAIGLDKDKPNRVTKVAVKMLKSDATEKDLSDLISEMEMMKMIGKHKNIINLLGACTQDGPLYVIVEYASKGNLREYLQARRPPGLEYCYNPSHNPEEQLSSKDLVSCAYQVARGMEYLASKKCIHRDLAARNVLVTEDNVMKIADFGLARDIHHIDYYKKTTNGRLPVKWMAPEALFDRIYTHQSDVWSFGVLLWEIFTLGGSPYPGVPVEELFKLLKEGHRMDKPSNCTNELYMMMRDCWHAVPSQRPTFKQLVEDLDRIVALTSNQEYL
Procedure: as §1, §2, §3, §4

[3] = tested on: human lung cancer NCI-H1581 transplanted tumor; test: Growth of transplanted tumor of human lung cancer NCI-H1581 in nude mice; format: in vivo, nude mouse; conditions: for T/C (%) relative tumor proliferation rate: d14; for body weight change of the animals / tumor volume change of the animals: po, 14 days
Procedure: The tumor tissue in the vigorous growth period was cut into about 1.5 mm^3, and inoculated subcutaneously in the right axilla of nude mouse under aseptic conditions. The diameter of transplanted subcutaneously tumor in the nude mouse was measured with a vernier caliper. The mice were randomly divided into groups after the tumor was grown to an average volume of about 90 mm 3. The compound No. 12 obtained in Example 12 was orally administered once a day at a dose of 100 mg/kg and 20 mg/kg, respectively, for 14 days, and the growth inhibition effects of compound NO. 12 on subcutaneously transplanted tumor in human lung cancer NCI-H1581 nude mouse were measured.
In the solvent control group, an equal amount of physiological saline was given. During the entire experiment, the diameter of the transplanted tumor was measured twice a week, and the body weight of the mice was weighed. The tumor volume (TV) is calculated as: TV=½×a×b^2, where a and b represent length and width, respectively. According to the measured results, the relative tumor volume (RTV) was calculated as: RTV=Vt/V0, wherein V0 was the tumor volume measured when the mouse was administered in cage (i.e. d0), Vt was the tumor volume at each measurement.
On the day of the end of the experiment, 2 hours after administration, blood samples and tumor tissues of each group were collected and preserved.

EGFR = EGFR (Homo sapiens, UniProt P00533); test: Inhibitory activity on EGFR enzyme activity; format: biochemical
Sequence of EGFR (P00533 25-1210, species assumed): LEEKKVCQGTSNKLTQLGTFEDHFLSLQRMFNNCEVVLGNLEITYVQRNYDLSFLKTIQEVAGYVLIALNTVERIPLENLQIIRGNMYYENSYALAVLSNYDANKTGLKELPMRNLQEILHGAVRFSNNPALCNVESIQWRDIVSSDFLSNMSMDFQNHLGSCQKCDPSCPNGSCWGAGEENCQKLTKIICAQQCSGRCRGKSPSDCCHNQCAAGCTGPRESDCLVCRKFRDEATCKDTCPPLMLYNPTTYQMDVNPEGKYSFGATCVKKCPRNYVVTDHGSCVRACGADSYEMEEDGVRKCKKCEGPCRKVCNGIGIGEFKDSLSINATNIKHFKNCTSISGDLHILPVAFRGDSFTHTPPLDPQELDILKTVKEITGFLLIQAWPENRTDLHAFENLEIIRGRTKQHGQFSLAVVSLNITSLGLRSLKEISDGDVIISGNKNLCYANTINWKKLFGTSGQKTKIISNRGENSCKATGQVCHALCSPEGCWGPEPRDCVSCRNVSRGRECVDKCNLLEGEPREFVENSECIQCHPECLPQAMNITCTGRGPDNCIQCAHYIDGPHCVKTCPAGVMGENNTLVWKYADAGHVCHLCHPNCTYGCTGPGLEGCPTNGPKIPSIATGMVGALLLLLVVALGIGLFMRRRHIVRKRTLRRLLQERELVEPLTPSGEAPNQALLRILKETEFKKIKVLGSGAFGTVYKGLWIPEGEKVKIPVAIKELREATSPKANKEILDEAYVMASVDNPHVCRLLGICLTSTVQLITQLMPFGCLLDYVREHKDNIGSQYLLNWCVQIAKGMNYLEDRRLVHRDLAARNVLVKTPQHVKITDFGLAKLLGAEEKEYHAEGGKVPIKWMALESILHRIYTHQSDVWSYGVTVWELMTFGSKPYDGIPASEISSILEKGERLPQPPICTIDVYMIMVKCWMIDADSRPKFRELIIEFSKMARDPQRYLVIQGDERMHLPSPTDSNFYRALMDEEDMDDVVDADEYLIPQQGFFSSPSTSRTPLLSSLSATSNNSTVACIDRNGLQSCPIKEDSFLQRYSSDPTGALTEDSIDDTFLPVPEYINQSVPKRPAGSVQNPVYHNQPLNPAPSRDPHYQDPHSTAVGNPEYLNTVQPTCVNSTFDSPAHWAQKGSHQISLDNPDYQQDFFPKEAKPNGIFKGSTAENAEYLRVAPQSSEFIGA

Compound | IC50 (SNU16 cells) [nM] | IC50 [1] [nM] | IC50 [2] [nM] | T/C (%) relative tumor proliferation rate ([3]; 20 mg/kg qd/14 po) [%] | body weight change of the animals ([3]; 20 mg/kg) [%] | tumor volume change of the animals ([3]; 20 mg/kg) [%] | T/C (%) relative tumor proliferation rate ([3]; 100 mg/kg qd/14 po) [%] | body weight change of the animals ([3]; 100 mg/kg) [%] | tumor volume change of the animals ([3]; 100 mg/kg) [%] | IC50 (EGFR) [nM] | EGFR inhibitory activity (in words) (EGFR; conclusion from Table 3)
C=C(F)C(=O)N1CC(n2cc(-c3cc4cc(C)cc(OC)c4s3)c3c(N)ncnc32)C1 [NO. 29] | < 10 | 10 to 100 | < 10 | – | – | – | – | – | – | – | –
C=CC(=O)N1CCC(n2nc(-c3cc4cc(C)cc(OC)c4s3)c3c(N)ncnc32)C1 (stereo not shown) [NO. 2, 1-(3-(4-amino-3-(7-methoxy-5-methylbenzothiophene-2-yl)-1H-pyrazole[3,4-d]pyrimidine-1-yl)pyrrolidine-1-yl)prop-2-en-1-one] | < 10 | 10 to 100 | < 10 | – | – | – | – | – | – | – | –
C#CC(=O)N1CC[C@H](n2nc(-c3cc4cc(C)cc(OC)c4s3)c3c(N)ncnc32)C1 [NO. 39, (S)-1-(3-(4-amino-3-(7-methoxy-5-methylbenzothiophene-2-yl)1H-pyrazolo[3,4-d]pyrimidine-1-yl)pyrrolidin-yl)prop-2-yn-1-one] | > 100 | < 10 | < 10 | – | – | – | – | – | – | – | –
COc1cc(C)cc2cc(-c3nn([C@H]4CCN(C(=O)/C=C/CN(C)C)C4)c4ncnc(N)c34)sc12 [NO. 38] | < 10 | > 100 | < 10 | – | – | – | – | – | – | – | –
C=CC(=O)N1CC(n2nc(-c3cc4cc(C)cc(OC)c4s3)c3c(N)ncnc32)C1 [NO. 26, 1-(3-(4-amino-3-(7-methoxy-5-methylbenzothiophene-2-yl)-1H-pyrazole[3,4-d]pyrimidine-1-yl)azetidine-1-yl)prop-2-en-1-one] | > 100 | < 10 | < 10 | – | – | – | – | – | – | – | –
C=CC(=O)N1CCC(n2cc(-c3cc4cc(C)cc(OC)c4s3)c3c(N)ncnc32)C1 (stereo not shown) [NO. 1, 1-(3-(4-amino-5-(7-methoxy-5-methylbenzothiophen-2-yl)-7H-pyrrole[2,3-d]pyrimidine-7-yl)pyrrolidine-1-yl)prop-2-en-1-one] | < 10 | < 10 | < 10 | – | – | – | – | – | – | – | –
C=CC(=O)N1CC[C@H](n2cc(-c3cc4cc(C)cc(OC)c4s3)c3c(N)ncnc32)C1 [NO. 12, (S)-1-(3-(4-amino-5-(7-methoxy-5-methylbenzothiophene-2-yl)-7H-pyrrole[2,3-d]pyrimidine-7-yl)pyrrolidine-1-yl)prop-2-en-1-one] | – | < 10 | < 10 | 31.28 | 24.2 | 1500 | 2.9 | −5.9 | 54.8 | > 1000 | substantially no EGFR inhibitory activity
